Experiments:
[1] = Hepatocyte stability, predicted hepatic clearance; type: in vitro ADME, cynomolgus monkeys; details: Cyno hepatocytes, in vitro t1/2 method
Method: (§1) The hepatocyte stability of compound IIIat was evaluated across preclinical species. Certain in vivo pharmacokinetic parameters were also evaluated. […] Male Sprague-Dawley rats, female CD-1 mice, male cynomolgus monkeys and beagle dogs were dosed intravenously with 1 mg/kg of compound IIIat prepared in 60% PEG400/10% Ethanol. Compound IIIat was administered orally (PO) at the indicated dose in 0.5% methylcellulose with 0.2% Tween 80 (MCT).

[2] = Plasma protein binding (PPB %); type: in vitro ADME, cynomolgus monkeys; details: cynomolgus monkey
Method: as §1

high-grade gliomas = assay: Phase I study, best overall response (RANO); type: in vivo, human; details: evaluable patients
Method: Tumor response was determined by either an assessment of FDG-PET or by Response Assessment in Neuro-Oncology (RANO).
Tumor response under the RANO guidelines was done generally in accordance with the Wen method (Wen P Y, Macdonald D R, Reardon D A, et al. “Updated response assessment criteria for high-grade gliomas: Response Assessment in Neuro-Oncology Working Group”, J Clin Oncol 2010; 28:1963-72) where the disease is categorized as “complete response”, “partial response”, “stable disease” and “progression”. Among other factors, a complete response required all of the following: complete disappearance of all enhancing measurable and non-measurable disease sustained for at least 4 weeks; no new lesions; and stable or improved non-enhancing (T2/FLAIR) lesions. A partial response required, among other factors, ≥50% decrease, compared with baseline, in the sum of the products of the perpendicular diameters of all measurable enhancing lesions (such as measured by MRI) sustained for at least 4 weeks; no progression of non-measurable disease; and no new lesions.

[3] = Brain binding, dialysis of brain homogenate; type: in vitro ADME; details: mouse brain homogenate, n=3, read-out: free fraction in brain tissues
Method: Following dialysis, tissues and buffer samples were analyzed as described for the plasma protein binding studies.

[4] = MALDI imaging of brain distribution, U87 orthotopic model; type: in vivo, female nude mice; details: 15 mg/kg PO, 1 hour post dose
Method: Mice were euthanized at 1 and 6 hours post-dose via exsanguination by perfusion under anesthesia. Brains were excised, flash frozen in liquid N2 and stored in a −80° C. freezer until analyzed. Fresh frozen tissue sections were obtained on a cryomicrotome (Leica CM3050S, Buffalo Grove, Ill.) at 12 μm thickness and thaw-mounted onto indium tin oxide coated glass slides (Bruker Daltonics, Billerica, Mass.). Tissue sections were an analyzed by imaging MALDI MS, providing signal intensities (and not absolute quantitation), followed by cresyl violet staining for histological interrogation.
For MALDI MAS analysis, a 40 mg/mL solution of 2,5-dihydroxybenzoic acid (Sigma-Aldrich, St. Louis, Mo.) was prepared in methanol:water (70:30 v/v). […] Matrix solution was homogenously spray-coated onto the tissue using a HTX TM-Sprayer (HTX technologies. Chapel Hill, N.C.). Matrix-coated tissue sections were transferred to the MALDI mass spectrometer (SolariX 7T FT-ICR, Bruker Daltonics, Bremen, Germany) for imaging analysis. […] Laser intensity and number of shots were optimized for sensitivity of the parent drug (1200 shots) with ion detection collected over the mass range of m/z 150-3000.
Following completion of the imaging experiments, matrix coaling was removed by rinsing the glass slide in 100% methanol for 30 seconds or until the entire matrix was visibly removed. […] Microscope images were obtained on an Olympus BX51 (Tokyo, Japan) at 10× magnification and stitched using MicroSuite Analytical v3.0 software (Olympus, Tokyo, Japan). Subsequently, stained images were co-registered to the optical images in FlexImaging for visualization and annotation of tumor and non-tumor regions for the drug images.
To assess drug distribution, imaging MALDI MS data from U87 and GS2 tumor models were co-registered to the cresyl violet stained microscope images in FlexImaging Regions of interest (ROIs) that were selected based on the anatomical features defined in the histological image including tumor and non-tumor regions. Drug intensity for each pixel within the defined ROI was extracted and exported. […] Histogram plots were created in GraphPad Prism 5 to visualize the distribution of pixel intensity frequencies.

GS2 intracranial tumors = assay: Efficacy in GS2 intracranial model; type: in vivo, mice; details: 15 mg/kg PO daily for 4 weeks, MRI, p<0.01
Description: These U87 and GS2 models are PTEN-deficient, with the GS2 cell line presenting a copy number loss at the PTEN locus (Gunther H S, et al.) with no detectable PTEN protein by western blot (Carlson […], Schroeder […]., “Establishment, maintenance and in vitro and in vivo applications of primary human glioblastoma multiforme (GBM) xenograft models for translational biology studies and drug discovery”, Curr Protoc Pharmacol. 2011; Chapter 14: Unit 14 16). The identity of the two cell lines was confirmed by STR profiling (DNA Diagnostics Center) using cells within 5 passages of those utilized for in vivo studies. […] The differences between treatment groups were evaluated using Student's t test in Prism (Prism 5, GraphPad). […] Body temperature was continuously monitored using a rectal probe and was maintained at 37° C. by a heated-air flow system regulated by in-house LabVIEW controller software. A T2-weighted fast spin echo, multi-slice (FSEMS) sequence was used to detect lesions by MRI. 12-20 axial 0.5-0.8 mm-thick slices were acquired with a 20×20 mm field of view (FOV), and 128×128 matrix, zero-filled to 256×256 mages. TR=3500-4000 ms, TE=9-10 ms, ETL=8, k-zero=4, NEX=8. Tumor volumes were calculated from the T2-weighted FSEMS images using an intensity threshold based region growing tool in MRVision software. […]

p4EBP1 = assay: PI3K pathway modulation in GS2 tumors, western blot; type: in vivo, mice; details: 15 mg/kg PO daily 4 weeks
CaMKII_beta = CaMKII_beta (Homo sapiens, UniProt Q13554); assay: biochemical; details: read-out: % inhib
MST2 = MST2 (Homo sapiens, UniProt Q13188); assay: biochemical; details: read-out: % inhib
NEK7 = NEK7 (Homo sapiens, UniProt Q8TDX7); assay: biochemical; details: read-out: % inhib
PAK1 = PAK1 (Homo sapiens, UniProt Q13153); assay: biochemical; details: read-out: % inhib
PhK_gamma1 = PhK_gamma1 (Homo sapiens, UniProt Q16816); assay: biochemical; details: read-out: % inhib
Sequence of PhK_gamma1 (Q16816 whole entry): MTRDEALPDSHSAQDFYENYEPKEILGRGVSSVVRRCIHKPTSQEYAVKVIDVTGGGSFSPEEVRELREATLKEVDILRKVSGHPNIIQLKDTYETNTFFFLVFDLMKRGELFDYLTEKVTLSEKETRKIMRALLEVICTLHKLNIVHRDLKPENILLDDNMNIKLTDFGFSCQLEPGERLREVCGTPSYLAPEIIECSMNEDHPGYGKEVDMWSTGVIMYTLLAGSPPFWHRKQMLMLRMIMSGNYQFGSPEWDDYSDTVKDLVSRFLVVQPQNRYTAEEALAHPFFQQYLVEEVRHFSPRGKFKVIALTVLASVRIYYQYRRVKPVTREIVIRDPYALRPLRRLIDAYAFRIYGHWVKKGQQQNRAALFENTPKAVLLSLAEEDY

Sequence of PAK1 (Q13153 whole entry): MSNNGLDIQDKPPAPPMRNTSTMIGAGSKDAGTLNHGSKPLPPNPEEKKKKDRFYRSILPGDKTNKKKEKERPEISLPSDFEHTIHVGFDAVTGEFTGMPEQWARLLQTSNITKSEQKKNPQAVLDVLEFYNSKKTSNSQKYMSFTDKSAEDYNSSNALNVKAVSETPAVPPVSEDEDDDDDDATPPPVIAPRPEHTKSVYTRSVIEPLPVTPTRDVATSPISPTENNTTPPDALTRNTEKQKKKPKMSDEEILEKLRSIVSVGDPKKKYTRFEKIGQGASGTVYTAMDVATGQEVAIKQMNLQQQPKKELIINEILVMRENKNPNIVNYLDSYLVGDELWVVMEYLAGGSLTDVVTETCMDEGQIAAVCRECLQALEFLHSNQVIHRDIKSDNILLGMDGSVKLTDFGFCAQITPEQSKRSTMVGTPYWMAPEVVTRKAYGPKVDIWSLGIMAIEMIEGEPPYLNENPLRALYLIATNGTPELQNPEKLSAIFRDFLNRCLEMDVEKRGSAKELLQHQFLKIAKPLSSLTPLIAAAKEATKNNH
Sequence of CaMKII_beta (Q13554 whole entry): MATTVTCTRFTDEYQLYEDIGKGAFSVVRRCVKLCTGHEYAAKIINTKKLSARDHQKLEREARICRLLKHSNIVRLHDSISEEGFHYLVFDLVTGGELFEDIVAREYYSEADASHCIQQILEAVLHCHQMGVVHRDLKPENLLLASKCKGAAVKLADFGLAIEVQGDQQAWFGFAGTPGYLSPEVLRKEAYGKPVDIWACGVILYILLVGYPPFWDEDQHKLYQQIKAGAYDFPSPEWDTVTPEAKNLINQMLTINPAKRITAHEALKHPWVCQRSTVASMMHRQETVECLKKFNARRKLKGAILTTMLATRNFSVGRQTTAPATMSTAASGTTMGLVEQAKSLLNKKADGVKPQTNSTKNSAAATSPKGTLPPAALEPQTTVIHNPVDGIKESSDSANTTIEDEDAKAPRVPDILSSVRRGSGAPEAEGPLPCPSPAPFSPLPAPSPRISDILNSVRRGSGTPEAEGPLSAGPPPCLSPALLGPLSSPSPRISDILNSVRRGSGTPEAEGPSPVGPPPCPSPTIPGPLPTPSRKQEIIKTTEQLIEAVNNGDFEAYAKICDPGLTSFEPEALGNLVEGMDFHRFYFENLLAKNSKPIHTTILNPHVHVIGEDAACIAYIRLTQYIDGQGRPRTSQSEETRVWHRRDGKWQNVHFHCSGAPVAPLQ
Sequence of MST2 (Q13188 whole entry, species assumed): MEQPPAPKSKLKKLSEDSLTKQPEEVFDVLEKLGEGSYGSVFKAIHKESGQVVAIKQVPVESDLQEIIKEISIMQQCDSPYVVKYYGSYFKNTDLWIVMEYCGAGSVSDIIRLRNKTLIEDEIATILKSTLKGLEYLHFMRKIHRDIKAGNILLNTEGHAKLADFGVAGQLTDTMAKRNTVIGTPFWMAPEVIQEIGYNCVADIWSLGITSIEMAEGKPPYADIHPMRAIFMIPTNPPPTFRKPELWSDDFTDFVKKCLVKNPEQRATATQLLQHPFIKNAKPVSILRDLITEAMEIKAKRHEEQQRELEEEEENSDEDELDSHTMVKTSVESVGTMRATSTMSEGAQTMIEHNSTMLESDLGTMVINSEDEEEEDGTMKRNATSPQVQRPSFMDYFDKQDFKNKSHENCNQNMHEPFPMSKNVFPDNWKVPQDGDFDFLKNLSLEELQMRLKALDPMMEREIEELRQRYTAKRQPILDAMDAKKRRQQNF
Sequence of NEK7 (Q8TDX7 whole entry): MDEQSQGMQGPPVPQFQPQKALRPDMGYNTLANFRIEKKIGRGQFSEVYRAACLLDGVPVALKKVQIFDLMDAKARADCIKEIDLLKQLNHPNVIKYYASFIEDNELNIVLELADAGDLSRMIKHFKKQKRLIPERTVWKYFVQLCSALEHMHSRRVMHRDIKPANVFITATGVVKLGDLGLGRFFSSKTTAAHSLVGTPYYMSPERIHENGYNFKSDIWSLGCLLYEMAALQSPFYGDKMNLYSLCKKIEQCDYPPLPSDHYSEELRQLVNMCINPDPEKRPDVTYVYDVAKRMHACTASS

In the case of `CC1(C)OCCn2c1nc1c(N3CCOCC3)nc(-c3cnc(N)nc3)nc12` [GDC-0084, 5-(6,6-dimethyl-4-morpholino-8,9-dihydro-6H-[1,4]oxazino[3,4-e]purin-2-yl)pyrimidin-2-amine], the Clhep [1] is reported as 26 mL/min/kg, the fraction unbound [2] is reported as 0.25 and the “best overall response of progressive disease, patients” value (high-grade gliomas) is reported as 26 patients. For the same molecule, the “best overall response of progressive disease, percent” value (high-grade gliomas) was 55.3%, the “best overall response stable disease, patients” value (high-grade gliomas) was 19 patients and the “best overall response stable disease, percent” value (high-grade gliomas) was 40.4%. The fraction unbound at 4 h, 5 µM [3] was 0.067, the “distribution in brain and intracranial tumors (MALDI images)” value ([4]; U87 and GS2 models) was “distributed readily and quite evenly throughout the brain” and the “mean pixel intensity (MALDI imaging)” value ([4]; U87 tumors) was 0.54. The “mean pixel intensity (MALDI imaging)” value ([4]; healthy brain of U87 tumor-bearing mice) was 0.54, the “GS2 tumors smaller than control group” value (GS2 intracranial tumors) was “≈ 40%” and the “Suppression of p4EBP1 in GS2 tumors” value (p4EBP1; 2 hours after final administration) was 43%. The “p4EBP1 level in GS2 tumors” value (p4EBP1; 8 hours post-dose) was “back to baseline levels”, the inhibition at 1 µM (CaMKII_beta) was 0.2% and the inhibition at 1 µM (MST2) was -2%. It also gave an inhibition at 1 µM (NEK7) of -0.3%, an inhibition at 1 µM (PAK1) of 7% and an inhibition at 1 µM (PhK_gamma1) of 2%.

From patent publication US11643421B2, “Process for the preparation of tricyclic PI3K inhibitor compounds and methods for using the same for the treatment of cancer” (priority 2015, dated 2023)
